# In ChEMBL document CHEMBL4138123, “Design, synthesis and biological evaluation of novel pyrazolochalcones as potential modulators of PI3K/Akt/mTOR pathway and inducers of apoptosis in breast cancer cells” (Eur J Med Chem, 2017):
# Key:
# Assay type in all cases: functional
# MOLT-4 [1] = assay: Cytotoxicity against human MOLT4 cells assessed as growth inhibition after 48 hrs by sulforhodamine B assay; conditions: MOLT-4, 48 h; for CC50: read-out: LC50 (the source's name)
# NCI-H322M = assay: Cytotoxicity against human NCI-H322M cells assessed as growth inhibition after 48 hrs by sulforhodamine B assay
# COLO 205 = assay: Cytotoxicity against human COLO205 cells assessed as growth inhibition after 48 hrs by sulforhodamine B assay; conditions: COLO 205, 48 h
# SW-620 = assay: Cytotoxicity against human SW620 cells assessed as growth inhibition after 48 hrs by sulforhodamine B assay; conditions: SW-620, 48 h
# SK-MEL-2 = assay: Cytotoxicity against human SK-MEL-2 cells assessed as growth inhibition after 48 hrs by sulforhodamine B assay; conditions: SK-MEL-2, 48 h
# UACC-257 = assay: Cytotoxicity against human UACC257 cells assessed as growth inhibition after 48 hrs by sulforhodamine B assay; conditions: UACC-257, 48 h
# RXF 393 = assay: Cytotoxicity against human RXF393 cells assessed as growth inhibition after 48 hrs by sulforhodamine B assay; conditions: RXF 393, 48 h
# DU-145 = assay: Cytotoxicity against human DU145 cells assessed as growth inhibition after 48 hrs by sulforhodamine B assay; conditions: DU-145, 48 h
# HL-60(TB) = assay: Cytotoxicity against human HL-60(TB) cells assessed as cell growth at 0.01 uM after 48 hrs by sulforhodamine B assay relative to control; conditions: HL-60, 48 h, read-out: Activity
# PC-3 = assay: Cytotoxicity against human PC3 cells assessed as cell growth at 0.01 uM after 48 hrs by sulforhodamine B assay relative to control; conditions: PC-3, 48 h, read-out: Activity
# MDA-MB-231 = assay: Cytotoxicity against human MDA-MB-231 cells assessed as cell growth at 0.01 uM after 48 hrs by sulforhodamine B assay relative to control; conditions: MDA-MB-231, 48 h, read-out: Activity
# RPMI-8226 = assay: Cytotoxicity against human RPMI8226 cells assessed as cell growth at 0.1 uM after 48 hrs by sulforhodamine B assay relative to control; conditions: RPMI-8226, 48 h, read-out: Activity
# HOP-62 = assay: Cytotoxicity against human HOP62 cells assessed as cell growth at 0.1 uM after 48 hrs by sulforhodamine B assay relative to control; conditions: HOP-62, 48 h, read-out: Activity
# HCT-116 = assay: Cytotoxicity against human HCT116 cells assessed as cell growth at 0.1 uM after 48 hrs by sulforhodamine B assay relative to control; conditions: HCT-116, 48 h, read-out: Activity
# U-251 [2] = assay: Cytotoxicity against human U251 cells assessed as cell growth at 0.1 uM after 48 hrs by sulforhodamine B assay relative to control; conditions: U-251, 48 h, read-out: Activity
# SK-MEL-5 = assay: Cytotoxicity against human SK-MEL-5 cells assessed as cell growth at 0.1 uM after 48 hrs by sulforhodamine B assay relative to control; conditions: SK-MEL-5, 48 h, read-out: Activity
# IGROV-1 [3] = assay: Cytotoxicity against human IGROV1 cells assessed as cell growth at 0.1 uM after 48 hrs by sulforhodamine B assay relative to control; conditions: IGROV-1, 48 h, read-out: Activity
# OVCAR-4 = assay: Cytotoxicity against human OVCAR4 cells assessed as cell growth at 0.1 uM after 48 hrs by sulforhodamine B assay relative to control; conditions: OVCAR-4, 48 h, read-out: Activity
# BT-549 [4] = assay: Cytotoxicity against human BT549 cells assessed as cell growth at 0.1 uM after 48 hrs by sulforhodamine B assay relative to control; conditions: BT-549, 48 h, read-out: Activity
# SF-268 = assay: Cytotoxicity against human SF268 cells assessed as cell growth at 1 uM after 48 hrs by sulforhodamine B assay relative to control; conditions: SF-268, 48 h, read-out: Activity
# U-251 [5] = assay: Cytotoxicity against human U251 cells assessed as cell growth at 1 uM after 48 hrs by sulforhodamine B assay relative to control; conditions: U-251, 48 h, read-out: Activity
# OVCAR-5 = assay: Cytotoxicity against human OVCAR5 cells assessed as cell growth at 1 uM after 48 hrs by sulforhodamine B assay relative to control; conditions: OVCAR-5, 48 h, read-out: Activity
# ACHN = assay: Cytotoxicity against human ACHN cells assessed as cell growth at 1 uM after 48 hrs by sulforhodamine B assay relative to control; conditions: read-out: Activity
# TK-10 = assay: Cytotoxicity against human TK10 cells assessed as cell growth at 1 uM after 48 hrs by sulforhodamine B assay relative to control; conditions: TK-10, 48 h, read-out: Activity
# MOLT-4 [6] = assay: Cytotoxicity against human MOLT4 cells assessed as cell growth at 10 uM after 48 hrs by sulforhodamine B assay relative to control; conditions: MOLT-4, 48 h, read-out: Activity
# NCI-H460 = assay: Cytotoxicity against human NCI-H460 cells assessed as cell growth at 10 uM after 48 hrs by sulforhodamine B assay relative to control; conditions: NCI-H460, 48 h, read-out: Activity
# HCT-15 = assay: Cytotoxicity against human HCT15 cells assessed as cell growth at 10 uM after 48 hrs by sulforhodamine B assay relative to control; conditions: HCT-15, 48 h, read-out: Activity
# NCI/ADR-RES = assay: Cytotoxicity against human NCI/ADR-RES cells assessed as cell growth at 10 uM after 48 hrs by sulforhodamine B assay relative to control; conditions: read-out: Activity
# SK-OV-3 = assay: Cytotoxicity against human SKOV3 cells assessed as cell growth at 10 uM after 48 hrs by sulforhodamine B assay relative to control; conditions: SK-OV-3, 48 h, read-out: Activity
# Hs-578T = assay: Cytotoxicity against human Hs 578T cells assessed as cell growth at 10 uM after 48 hrs by sulforhodamine B assay relative to control; conditions: read-out: Activity
# CCRF-CEM = assay: Cytotoxicity against human CCRF-CEM cells assessed as cell growth at 100 uM after 48 hrs by sulforhodamine B assay relative to control; conditions: read-out: Activity
# MDA-MB-435 = assay: Cytotoxicity against human MDA-MB-435 cells assessed as cell growth at 100 uM after 48 hrs by sulforhodamine B assay relative to control; conditions: MDA-MB-435, 48 h, read-out: Activity
# IGROV-1 [7] = assay: Cytotoxicity against human IGROV1 cells assessed as cell growth at 100 uM after 48 hrs by sulforhodamine B assay relative to control; conditions: IGROV-1, 48 h, read-out: Activity
# BT-549 [8] = assay: Cytotoxicity against human BT549 cells assessed as cell growth at 100 uM after 48 hrs by sulforhodamine B assay relative to control; conditions: BT-549, 48 h, read-out: Activity
# [9] = read-out: LC50 (the source's name)
smiles,measurement,setting,value
COc1ccc(C(=O)/C=C/c2cc(-c3cc(OC)c(OC)c(OC)c3)n[nH]2)cc1,TGI,MOLT-4 [1],6.82 µM
same,CC50,MOLT-4 [1],> 100 µM
same,TGI,NCI-H322M,4.07 µM
same,LC50,COLO 205,6.06 µM
same,TGI,COLO 205,3.24 µM
same,TGI,SW-620,3.47 µM
same,LC50 (concentration killing 50% of cells),SK-MEL-2,99.2 µM
same,TGI,SK-MEL-2,19.6 µM
same,TGI,UACC-257,3.74 µM
same,LC50 (concentration killing 50% of cells),RXF 393,5.17 µM
same,TGI,RXF 393,2.56 µM
same,TGI,DU-145,2.83 µM
same,growth at 0.01 µM,HL-60(TB),115%
same,growth at 0.01 µM,PC-3,99%
same,growth at 0.01 µM,MDA-MB-231,104%
same,growth at 0.1 µM,RPMI-8226,90%
same,growth at 0.1 µM,HOP-62,102%
same,growth at 0.1 µM,HCT-116,102%
same,growth at 0.1 µM,U-251 [2],97%
same,growth at 0.1 µM,SK-MEL-5,99%
same,growth at 0.1 µM,IGROV-1 [3],102%
same,growth at 0.1 µM,OVCAR-4,94%
same,growth at 0.1 µM,BT-549 [4],97%
same,growth at 1 µM,SF-268,87%
same,growth at 1 µM,U-251 [5],81%
same,growth at 1 µM,OVCAR-5,95%
same,growth at 1 µM,ACHN,105%
same,growth at 1 µM,TK-10,92%
same,growth at 10 µM,MOLT-4 [6],-20%
same,growth at 10 µM,NCI-H460,-63%
same,growth at 10 µM,HCT-15,-41%
same,growth at 10 µM,NCI/ADR-RES,-1%
same,growth at 10 µM,SK-OV-3,18%
same,growth at 10 µM,Hs-578T,13%
same,growth at 100 µM,CCRF-CEM,-16%
same,growth at 100 µM,MDA-MB-435,-44%
same,growth at 100 µM,IGROV-1 [7],-29%
same,growth at 100 µM,BT-549 [8],-49%
COc1ccc(-c2cc(/C=C/C(=O)c3cc(OC)c(OC)c(OC)c3)[nH]n2)cc1OC,GI50,MOLT-4 [1],1.81 µM
same,TGI,MOLT-4 [1],8.86 µM
same,CC50,MOLT-4 [1],> 100 µM
same,GI50,NCI-H322M,2.02 µM
same,TGI,NCI-H322M,6.03 µM
same,CC50,NCI-H322M; [9],25 µM
same,GI50,COLO 205,1.75 µM
same,LC50,COLO 205,7.28 µM
same,TGI,COLO 205,3.57 µM
same,GI50,SW-620,1.5 µM
same,"LC50 (lethal concentration, 50% net cell kill)",SW-620,> 100 µM
same,TGI,SW-620,4.16 µM
same,GI50,SK-MEL-2,2.69 µM
same,LC50 (concentration killing 50% of cells),SK-MEL-2,29.5 µM
same,TGI,SK-MEL-2,7.7 µM
same,GI50,UACC-257,1.79 µM
same,LC50,UACC-257,8.05 µM
same,TGI,UACC-257,3.8 µM
same,GI50,RXF 393,1.53 µM
same,LC50 (concentration killing 50% of cells),RXF 393,6.51 µM
same,TGI,RXF 393,3.16 µM
same,GI50,DU-145,1.83 µM
same,TGI,DU-145,4.12 µM
same,CC50,DU-145; [9],9.28 µM
same,growth at 0.01 µM,HL-60(TB),98%
same,growth at 0.01 µM,PC-3,97%
same,growth at 0.01 µM,MDA-MB-231,98%
same,growth at 0.1 µM,RPMI-8226,85%
same,growth at 0.1 µM,HOP-62,80%
same,growth at 0.1 µM,HCT-116,88%
same,growth at 0.1 µM,U-251 [2],92%
same,growth at 0.1 µM,SK-MEL-5,102%
same,growth at 0.1 µM,IGROV-1 [3],97%
same,growth at 0.1 µM,OVCAR-4,73%
same,growth at 0.1 µM,BT-549 [4],82%
same,growth at 1 µM,SF-268,81%
same,growth at 1 µM,U-251 [5],65%
same,growth at 1 µM,OVCAR-5,81%
same,growth at 1 µM,ACHN,78%
same,growth at 1 µM,TK-10,96%
same,growth at 10 µM,MOLT-4 [6],-4%
same,growth at 10 µM,NCI-H460,-41%
same,growth at 10 µM,HCT-15,-41%
same,growth at 10 µM,NCI/ADR-RES,9%
same,growth at 10 µM,SK-OV-3,37%
same,growth at 10 µM,Hs-578T,9%
same,growth at 100 µM,CCRF-CEM,-13%
same,growth at 100 µM,MDA-MB-435,-78%
same,growth at 100 µM,IGROV-1 [7],-72%
same,growth at 100 µM,BT-549 [8],-93%
